Values after ≈ are worked out from the molar mass of the structure shown. Blank lines part the entries; values can stand above or below the compound they belong to.
Assays:
[1] = tested on: Staphylococcus aureus Smith; test: in vivo antibacterial activity, survival of infected mice (Table III); design: species or system Charles River CD-1 mice; details: subcutaneous
Experimental: (§1) Charles River CD-1 mice were infected with either Klebsiella pneumoniae AD or Staphylococcus aureus Smith. A single subcutaneous dose of the test compound was administered 1/2 hour after infection. […] The results appear in Tables II and III, wherein the representative test compounds are identified by the number of their hereinafter described examples.

Klebsiella pneumoniae AD [2] = test: in vivo antibacterial activity, survival of infected mice (Table II); design: species or system Charles River CD-1 mice; details: subcutaneous
Experimental: as §1

[3] = tested on: Enterobacter aerogenes VGH 84-36; test: in vitro antibacterial MIC, agar plate dilution; format: cell-based; details: Klebsiella aerogenes, VGH8436, 18 hours, 35° C., read-out: MIC
In short: (§2)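 Agar plate dilution on Mueller-Hinton agar, inoculum approximately 10^4 CFU per organism applied with a Steers replicator. MIC (mcg/ml) is the lowest compound concentration inhibiting visible growth after 18 hours at 35° C.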

[4] = tested on: Pseudomonas aeruginosa VGH 84-4; test: in vitro antibacterial MIC, agar plate dilution; format: cell-based; details: Pseudomonas aeruginosa, VGH844, 18 h, 35° C., read-out: MIC
In short: as §2

[5] = tested on: Staphylococcus aureus ATCC 25913; test: in vitro antibacterial MIC, agar plate dilution; format: cell-based; details: ATCC25913, 18 hours, 35° C.
In short: as §2

Klebsiella pneumoniae AD [6] = test: in vitro antibacterial MIC, agar plate dilution; format: cell-based; details: Klebsiella pneumoniae, 18 h, 35° C., read-out: MIC
In short: as §2

[7] = tested on: Klebsiella pneumoniae MOR 84-4; test: in vitro antibacterial MIC, agar plate dilution; format: cell-based; details: Klebsiella pneumoniae, MOR844, 18 h, 35° C., read-out: MIC
In short: as §2

[8] = tested on: Morganella morganii VGH 84-11; test: in vitro antibacterial MIC, agar plate dilution; format: cell-based; details: VGH8411, 18 hours, 35° C., read-out: MIC
In short: as §2

[9] = tested on: Escherichia coli ATCC 25922; test: in vitro antibacterial MIC, agar plate dilution; format: cell-based; details: Escherichia coli, ATCC25922, 18 h, 35° C., read-out: MIC
In short: as §2

[10] = tested on: Staphylococcus aureus Smith; test: in vitro antibacterial MIC, agar plate dilution; format: cell-based; details: Staphylococcus aureus, 18 h, 35° C., read-out: MIC
In short: as §2

[11] = tested on: Escherichia coli CMC 84-11; test: in vitro antibacterial MIC, agar plate dilution; format: cell-based; details: Escherichia coli, CMC8411, 18 h, 35° C., read-out: MIC
In short: as §2

[12] = tested on: Proteus rettgeri CMC 84-41; test: in vitro antibacterial MIC, agar plate dilution; format: cell-based; details: Providencia rettgeri, CMC8441, 18 h, 35° C., read-out: MIC
In short: as §2

[13] = tested on: Enterobacter cloacae VGH 84-37; test: in vitro antibacterial MIC, agar plate dilution; format: cell-based; details: Enterobacter cloacae, VGH8437, 18 h, 35° C., read-out: MIC
In short: as §2

Compound: FCC1CNCCN1 (centres unmarked) [Example 23, 2-(Fluoromethyl)piperazine]
Survival Ratio 7 Days After Infection ([1]; 4 mg/kg single dose): 0/5
Survival Ratio 7 Days After Infection ([1]; 8 mg/kg single dose): 0/5
Survival Ratio 7 Days After Infection ([1]; 16 mg/kg single dose): 5/5
Survival Ratio 7 Days After Infection ([1]; 32 mg/kg single dose): 5/5
Survival Ratio 7 Days After Infection ([1]; 64 mg/kg single dose): 5/5

MIC [3]: 128 µg/mL (≈ 272 µM)
MIC [4]: > 256 µg/mL
MIC [5]: 2 µg/mL (≈ 4.26 µM)
MIC (Klebsiella pneumoniae AD [6]): 16 µg/mL (≈ 34 µM)
MIC [7]: 32 µg/mL (≈ 68.1 µM)
MIC [8]: 16 µg/mL (≈ 34 µM)
MIC [9]: 16 µg/mL (≈ 34 µM)
MIC [10]: ≤ 0.12 µg/mL
MIC [11]: 16 µg/mL (≈ 34 µM)
MIC [12]: 16 µg/mL (≈ 34 µM)
MIC [13]: 16 µg/mL (≈ 34 µM)
Compound: CCn1cc(C(=O)O)c(=O)c2cc(F)c(N3CCNC(c4cc5cc(Cl)ccc5o4)C3)cc21 (centres unmarked) [Example 18, 7-[3-(5-Chloro-2-benzofuranyl)-1-piperazinyl]-1-ethyl-6-fluoro-1,4-dihydro-4-oxo-3-quinolinecarboxylic acid]
Survival Ratio 7 Days After Infection ([1]; 0.5 mg/kg single dose): 0/5
Survival Ratio 7 Days After Infection ([1]; 1 mg/kg single dose): 0/5
Survival Ratio 7 Days After Infection ([1]; 2 mg/kg single dose): 0/5
Survival Ratio 7 Days After Infection ([1]; 4 mg/kg single dose): 0/5
Survival Ratio 7 Days After Infection ([1]; 8 mg/kg single dose): 2/5
Survival Ratio 7 Days After Infection (Klebsiella pneumoniae AD [2]; 0.25 mg/kg single dose): 0/5
Survival Ratio 7 Days After Infection (Klebsiella pneumoniae AD [2]; 1 mg/kg single dose): 0/5
Survival Ratio 7 Days After Infection (Klebsiella pneumoniae AD [2]; 4 mg/kg single dose): 1/5
Survival Ratio 7 Days After Infection (Klebsiella pneumoniae AD [2]; 16 mg/kg single dose): 4/5
Survival Ratio 7 Days After Infection (Klebsiella pneumoniae AD [2]; 64 mg/kg single dose): 5/5

Reference: patent publication US5210193A, “Piperazine derivatives” (American Cyanamid Company, priority 1990, dated 1993)
